Article PMC11908448 (Bioorganic chemistry, 2019)
Read-outs that look alike come from different tables or passages of the source.

Key:
Bovine XO [1] = molecular target: T1, Bovine XO (Bos taurus, UniProt P80457); settings: cited from earlier work
Bovine XO [2] = molecular target: T1, Bovine XO; test: Determination of inhibitory potency against XO activity; type: biochemical

T1 sequence (P80457 whole entry): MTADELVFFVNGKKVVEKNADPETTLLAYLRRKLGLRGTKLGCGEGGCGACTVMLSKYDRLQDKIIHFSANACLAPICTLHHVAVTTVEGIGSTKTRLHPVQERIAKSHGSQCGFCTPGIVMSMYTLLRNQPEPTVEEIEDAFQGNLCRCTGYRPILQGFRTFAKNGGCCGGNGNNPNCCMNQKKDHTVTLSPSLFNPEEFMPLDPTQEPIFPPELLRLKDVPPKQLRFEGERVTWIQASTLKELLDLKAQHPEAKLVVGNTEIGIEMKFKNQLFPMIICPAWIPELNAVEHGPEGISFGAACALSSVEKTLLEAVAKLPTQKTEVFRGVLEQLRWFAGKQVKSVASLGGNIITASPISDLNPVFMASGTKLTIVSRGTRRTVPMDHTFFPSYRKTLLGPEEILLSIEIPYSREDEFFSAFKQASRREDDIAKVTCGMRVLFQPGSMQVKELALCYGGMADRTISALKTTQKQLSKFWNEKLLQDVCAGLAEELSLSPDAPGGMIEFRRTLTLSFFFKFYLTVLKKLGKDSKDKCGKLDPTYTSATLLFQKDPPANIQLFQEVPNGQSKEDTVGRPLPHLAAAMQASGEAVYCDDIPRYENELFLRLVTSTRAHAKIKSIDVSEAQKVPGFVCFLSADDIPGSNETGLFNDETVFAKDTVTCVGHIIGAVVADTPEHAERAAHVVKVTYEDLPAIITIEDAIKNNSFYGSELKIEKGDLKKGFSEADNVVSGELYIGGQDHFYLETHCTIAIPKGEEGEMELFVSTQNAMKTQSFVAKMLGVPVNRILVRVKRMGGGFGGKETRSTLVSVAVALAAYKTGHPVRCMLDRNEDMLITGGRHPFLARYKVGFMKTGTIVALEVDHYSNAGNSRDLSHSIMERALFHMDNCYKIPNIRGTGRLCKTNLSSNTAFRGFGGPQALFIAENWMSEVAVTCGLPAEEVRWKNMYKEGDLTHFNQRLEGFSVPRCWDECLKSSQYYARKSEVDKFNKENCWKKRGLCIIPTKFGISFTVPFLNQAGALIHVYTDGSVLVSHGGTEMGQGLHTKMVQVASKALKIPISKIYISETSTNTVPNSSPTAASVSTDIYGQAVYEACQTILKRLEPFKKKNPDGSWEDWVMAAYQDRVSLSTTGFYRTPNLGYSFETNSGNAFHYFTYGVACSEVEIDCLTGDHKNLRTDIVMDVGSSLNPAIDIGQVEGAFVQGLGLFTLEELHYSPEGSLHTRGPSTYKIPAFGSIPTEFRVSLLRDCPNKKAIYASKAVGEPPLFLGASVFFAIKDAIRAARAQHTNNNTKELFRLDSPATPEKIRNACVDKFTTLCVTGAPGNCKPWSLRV

| IC50 (Bovine XO [2]) | XO inhibitory potency (in words) (Bovine XO [2]; reported by others [41] or measured by the authors) | SMILES | mode of XO inhibition (Bovine XO [1]; kinetic studies) | XO inhibitory potency (in words) (Bovine XO [1]; literature statement) |
| --- | --- | --- | --- | --- |
| 3900 nM | – | O=C(/C=C/c1ccc(O)c(O)c1)OCCc1ccccc1 [Compound 1, (E)-phenethyl 3-(3,4-dihydroxyphenyl)acrylate] | competitive inhibitor | low micromolar range |
| ~250 nM | – | O=C(/C=C/c1ccc(O)c(O)c1)Oc1ccccc1 [Compound 8, (E)-phenyl 3-(3,4-dihydroxyphenyl)acrylate] | – | – |
| – | low nanomolar or subnanomolar range | Cc1nc(-c2ccc(OCC(C)C)c(C#N)c2)sc1C(=O)O [febuxostat, Febuxostat, reference compound] | – | – |
